Measurements reported in PubChem BioAssay (NCI).
“And” between values parts separate entries of the source, which are not always exact repeats. Identical values can stand only once.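 48-hour exposure; five concentrations; linearly interpolated endpoints. GI50 is the concentration that inhibits growth by half. At the TGI there is no net growth.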

Experiments:
Assay in all cases: NCI tumour cell line growth inhibition, 48 h
BT-549 breast = system: BT-549 breast
LOX IMVI melanoma = system: LOX IMVI melanoma
MCF7 breast = system: MCF7 breast
MDA-MB-435 = system: MDA-MB-435
NCI-H23 lung = system: NCI-H23 lung
NCI/ADR-RES ovarian = system: NCI/ADR-RES ovarian
RPMI-8226 leukemia = system: RPMI-8226 leukemia
UACC-257 melanoma = system: UACC-257 melanoma
UO-31 renal = system: UO-31 renal
A498 renal = system: A498 renal

| Compound | GI50 (BT-549 breast) | TGI (BT-549 breast) | GI50 (LOX IMVI melanoma) | TGI (LOX IMVI melanoma) | GI50 (MCF7 breast) | TGI (MCF7 breast) | GI50 (MDA-MB-435) | TGI (MDA-MB-435) | GI50 (NCI-H23 lung) | TGI (NCI-H23 lung) | GI50 (NCI/ADR-RES ovarian) | TGI (NCI/ADR-RES ovarian) | GI50 (RPMI-8226 leukemia) | TGI (RPMI-8226 leukemia) | GI50 (UACC-257 melanoma) | TGI (UACC-257 melanoma) | GI50 (UO-31 renal) | TGI (UO-31 renal) | TGI (A498 renal) [µM] | GI50 (A498 renal) |
| --- | --- | --- | --- | --- | --- | --- | --- | --- | --- | --- | --- | --- | --- | --- | --- | --- | --- | --- | --- | --- |
| C=C1C(=O)O[C@@H]2C[C@@H]1CC[C@@]1(C)O[C@@H]1CC[C@@]1(C)O[C@@H]1CC[C@@]2(C)O | 22.1 µM | 59.6 µM | 15.7 µM | 31 µM | 55.2 µM | > 100 µM | 17.4 µM | 68.4 µM | 1.58 µM | 3.14 µM | 32.4 µM | 78.3 µM | 14.4 µM | 79.7 µM | 43.6 µM | > 100 µM | 15.3 µM | > 100 µM |  |  |
| CC(C)(C)[Si](C)(C)O/N=C\c1ccc(O[Si](C)(C)C(C)(C)C)cc1 |  |  |  | 40.1 µM |  |  |  |  |  | > 100 µM |  |  |  | > 100 µM |  | > 100 µM |  | > 100 µM | > 100 |  |
| CN1c2ccccc2S(=O)(=O)n2c(COc3ccc(Cl)cc3)nnc21 |  | > 100 µM |  | > 100 µM |  | > 100 µM |  | > 100 µM |  | > 100 µM |  | > 100 µM |  |  |  | > 100 µM |  | > 100 µM | > 100 |  |
| N#CC(C#N)=CSc1ccccc1 |  |  |  | 26 µM |  |  |  |  |  | > 100 µM |  |  |  | > 100 µM |  | > 100 µM |  | 39.5 µM |  |  |
| O=C(O)C1CCCCN1C(=O)c1ccccc1 (stereo not given) |  |  |  | > 100 µM |  |  |  |  |  | > 100 µM |  |  |  | > 100 µM |  | > 100 µM |  | > 100 µM | > 100 |  |
| NC(=O)C(NC=O)c1ccccc1 (stereo not given) |  | > 100 µM |  | > 100 µM |  | > 100 µM |  | > 100 µM |  | > 100 µM |  | > 100 µM |  |  |  | > 100 µM |  | > 100 µM |  |  |
| COc1ccc2c(=O)c3cc([N+](=O)[O-])ccc3n(C)c2c1 |  | > 100 µM |  | > 100 µM |  | > 100 µM |  | > 100 µM |  |  |  | > 100 µM |  | > 100 µM |  | > 100 µM |  | > 100 µM | > 100 |  |
| Cc1cc(NS(=O)(=O)c2ccc(NC(=O)c3cccc4c(Nc5ccc(S(=O)(=O)Nc6cc(C)on6)cc5)c5ccccc5nc34)cc2)no1 |  |  |  | 87.5 µM |  |  |  |  |  | > 100 µM |  |  |  | > 100 µM |  | > 100 µM |  | > 100 µM | > 100 |  |
| Cc1ccccc1N=Nc1c(O)[nH]c2ccccc12 |  | > 100 µM |  | > 100 µM |  | > 100 µM |  | > 100 µM |  | > 100 µM |  | > 100 µM |  | > 100 µM |  | > 100 µM |  | > 100 µM |  |  |
| CNc1ccc(-c2cc(=O)oc3ccc(Cl)cc23)cc1 | 0.102 µM and 0.044 µM | 3.02 µM | 0.0636 µM and 0.0542 µM | > 100 µM | 0.229 µM and 0.151 µM | > 100 µM |  |  | 0.311 µM and 0.219 µM | > 100 µM | 0.0371 µM and 0.0363 µM |  | 0.194 µM and 0.154 µM | 33.9 µM | > 100 µM | > 100 µM | 0.417 µM and 0.501 µM | > 100 µM |  | 0.0811 µM and 0.0598 µM |
| Cc1cc(C)cc(Sc2c([N+](=O)[O-])ncn2C)c1 |  |  |  | 25.6 µM |  |  |  |  |  | 33.3 µM |  |  |  | > 100 µM |  | 27.7 µM |  | 85.9 µM | 77.1 |  |
| Cc1cc(C(=O)N2CCN(Cc3ccccc3)CC2)c(C)o1 |  |  |  | > 100 µM |  |  |  |  |  | > 100 µM |  |  |  | > 100 µM |  | > 100 µM |  | > 100 µM | > 100 |  |
| CCN(CC)CCNC(=O)c1cccc2cc3ccccc3nc12 |  |  |  | 19.2 µM |  |  |  |  |  |  |  |  |  |  |  |  |  | 22.1 µM | 22.2 |  |
| CCC[CH2][Sn]([CH2]CCC)([O]C(=O)c1nccnc1N)[O]C(=O)c1nccnc1N |  |  | 0.365 µM | 1.48 µM |  |  |  |  | 0.573 µM | 1.91 µM |  |  |  |  | 1.03 µM | 2.23 µM | 1.45 µM | 2.77 µM | 2.07 | 0.819 µM |
| NCC1OC(OC2C(CO)OC(OC3C(O)C(N)CC(N)C3OC3OC(CO)C(O)C(O)C3N)C2O)C(N)C(O)C1O (stereo not given) | > 50 µg/mL | > 50 µg/mL | > 50 µg/mL | > 50 µg/mL | > 50 µg/mL | > 50 µg/mL | > 50 µg/mL | > 50 µg/mL | > 50 µg/mL | > 50 µg/mL | > 50 µg/mL | > 50 µg/mL | > 50 µg/mL | > 50 µg/mL | > 50 µg/mL | > 50 µg/mL | > 50 µg/mL | > 50 µg/mL |  |  |
| O=C1C(Cl)=C(Nc2cccc(O)c2)C(=O)N1c1ccc(Cl)c(Cl)c1 |  |  | 15.8 µM | 33.3 µM | 25.1 µM | 85.1 µM | 21.9 µM | 59.6 µM | 15.4 µM | 31.3 µM | 22.4 µM | 52.3 µM | 15.9 µM | 57.7 µM |  |  | 31.7 µM | > 100 µM | 28.7 | 12.1 µM |
| COc1ccc(Cc2cnc(NC(=O)c3sc4ccccc4c3Cl)s2)cc1 | 1.18 µM | > 100 µM | 1.52 µM | > 100 µM | 0.355 µM | > 100 µM |  |  | 0.647 µM | > 100 µM | 0.342 µM | > 100 µM | 0.435 µM | > 42.7 µM | 25.7 µM | > 100 µM | 0.843 µM | > 100 µM | 12.7 | 0.222 µM |
| CC1(C)CC2C=C(C=O)C3(C=O)CC3(C)C2C1 (stereo not given) |  | 3.37 µM |  | 2.81 µM |  | 5.27 µM |  | 3.46 µM |  | 3.99 µM |  | 5.21 µM |  | 3.95 µM |  | 7.11 µM |  | 3.29 µM |  |  |
| Nc1ccccc1NC(=O)c1ccc(CN2CCC/C(=C\c3cccc(Cl)c3)C2=O)cc1 | 1.4 µM | 5.52 µM | 0.0664 µM | 2.06 µM | 0.0332 µM | 26.6 µM |  |  | 0.342 µM | 24.2 µM | 0.198 µM | 6.09 µM | 0.921 µM | 4.58 µM |  |  | 1.4 µM | 6.14 µM | 3.66 | 0.441 µM |
| COC(=O)C1CCC(Nc2cccc(C(F)(F)F)c2)=N1 (stereo not given) |  |  |  | > 100 µM |  |  |  |  |  | > 100 µM |  |  |  | > 100 µM |  | > 100 µM |  | > 100 µM | > 100 |  |
| O=C(O)C1c2ccccc2C(C(=O)O)c2ccccc21 (stereo not given) |  |  |  | > 100 µM |  |  |  |  |  |  |  |  |  | > 100 µM |  | > 100 µM |  | > 100 µM | > 100 |  |
